Earlier results in patent US20230321590A1, “AQUEOUS LIQUID SORBENT” (COMPACT CARBON CAPTURE AS, priority 2020, published 2023).

Details: literature values

Row | Compound | Reaction rate constant at 25° C. [m^3kmol^−1s^−1]
1 | C1CNCCN1 [Piperazine] | 53700
2 | CC(C)(N)CO [2-amino-2-methyl-1-propanol (AMP), 2-amino-2-methyl-1-propanol] | 810
3 | OCCNCCO [Diethanolamine (DEA), Diethanolamine] | 2375
4 | NCCO [Monoethanolamine (MEA), Monoethanolamine] | 7000
5 | CC(O)CNCC(C)O (stereo not drawn) [Diisopropanolamine (DIPA), Diisopropanolamine] | 2585
6 | NCCOCCO [Diglycolamine (DGA), Diglycolamine] | 6663
